Test results as given in patent US7846959B2, “Raf modulators and methods of use” (Exelixis, Inc., priority 2004, dated 2010).
Read-outs that look alike come from different tables or passages of the source.

Assays:
c-Raf = c-Raf (Homo sapiens, UniProt P04049); assay: Luciferase-coupled chemiluminescence kinase assay (ATP consumption), c-Raf; assay type: biochemical
How it was run: (§1)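 Raf enzyme ([…]) pre-incubated with compound 30 minutes at room temperature in 20 mM Tris pH 7.5, 10 mM MgCl2, 0.03% TX-100, 1 mM DTT, then reacted with ATP for 3 hrs at ambient temperature. Remaining ATP quantified by luciferase-luciferin chemiluminescence, consumption held at 25-60%; IC50 reported.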

B-Raf = B-Raf (Homo sapiens, UniProt P15056); assay: Luciferase-coupled chemiluminescence kinase assay (ATP consumption), B-Raf; assay type: biochemical
How it was run: as §1

[1] = read-out: cRaf-1 (inhibition indicated as IC50)
[2] = read-out: bRaf (inhibition indicated as IC50)

Sequence of B-Raf (P15056 whole entry): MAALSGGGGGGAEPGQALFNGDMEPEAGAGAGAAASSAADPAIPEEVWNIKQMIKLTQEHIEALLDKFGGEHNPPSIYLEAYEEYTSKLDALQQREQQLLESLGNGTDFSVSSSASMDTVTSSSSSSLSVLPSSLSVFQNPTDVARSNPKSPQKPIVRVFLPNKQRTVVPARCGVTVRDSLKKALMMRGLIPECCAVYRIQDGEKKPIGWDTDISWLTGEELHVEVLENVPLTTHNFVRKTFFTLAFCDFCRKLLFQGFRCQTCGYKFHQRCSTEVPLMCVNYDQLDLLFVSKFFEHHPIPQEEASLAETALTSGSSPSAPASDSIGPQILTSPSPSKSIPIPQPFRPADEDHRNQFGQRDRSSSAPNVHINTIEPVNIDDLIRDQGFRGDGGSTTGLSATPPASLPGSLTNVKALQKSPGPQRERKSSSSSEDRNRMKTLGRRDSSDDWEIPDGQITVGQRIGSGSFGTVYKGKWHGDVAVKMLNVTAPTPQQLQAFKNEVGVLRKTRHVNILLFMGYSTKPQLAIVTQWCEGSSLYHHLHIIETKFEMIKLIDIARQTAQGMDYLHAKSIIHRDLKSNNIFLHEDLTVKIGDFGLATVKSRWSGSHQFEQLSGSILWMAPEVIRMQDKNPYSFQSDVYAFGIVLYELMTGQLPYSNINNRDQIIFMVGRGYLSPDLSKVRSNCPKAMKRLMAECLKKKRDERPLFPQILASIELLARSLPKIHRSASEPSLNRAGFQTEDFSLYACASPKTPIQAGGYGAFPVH
Sequence of c-Raf (P04049 whole entry): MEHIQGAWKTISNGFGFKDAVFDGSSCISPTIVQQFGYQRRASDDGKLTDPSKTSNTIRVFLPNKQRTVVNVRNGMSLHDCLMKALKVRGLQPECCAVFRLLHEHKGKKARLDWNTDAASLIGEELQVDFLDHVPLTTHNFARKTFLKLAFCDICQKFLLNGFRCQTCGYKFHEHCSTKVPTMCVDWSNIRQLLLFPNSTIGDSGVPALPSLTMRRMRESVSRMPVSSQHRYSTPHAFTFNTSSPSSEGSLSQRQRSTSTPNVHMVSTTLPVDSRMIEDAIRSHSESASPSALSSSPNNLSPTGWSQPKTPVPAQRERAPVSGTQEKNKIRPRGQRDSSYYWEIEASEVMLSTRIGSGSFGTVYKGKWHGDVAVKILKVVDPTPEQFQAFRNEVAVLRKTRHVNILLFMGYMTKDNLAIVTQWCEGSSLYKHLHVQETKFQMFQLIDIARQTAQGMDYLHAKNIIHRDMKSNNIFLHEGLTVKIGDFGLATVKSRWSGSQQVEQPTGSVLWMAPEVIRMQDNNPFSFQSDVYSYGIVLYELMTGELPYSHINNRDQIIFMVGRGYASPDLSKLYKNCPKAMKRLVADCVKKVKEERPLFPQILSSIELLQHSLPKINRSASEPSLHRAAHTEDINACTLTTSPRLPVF

| SMILES | IC50 (c-Raf; [1]) [nM] | IC50 (B-Raf; [2]) [nM] | IC50 (c-Raf; read-out: cRaf-1 IC50) [nM] | IC50 (B-Raf; read-out: bRaf IC50) [nM] |
| --- | --- | --- | --- | --- |
| COC(=O)Nc1nc2ccc(C(=O)c3ccccc3C(=O)Nc3ccc(F)c(Br)c3)cc2[nH]1 [Entry 406, methyl {6-[(2-{[(3-bromo-4-fluorophenyl)amino]carbonyl}phenyl)carbonyl]-1H-benzimidazol-2-yl}carbamate] | < 100 | < 100 | – | – |
| C=CCCOC(=O)Nc1nc2cc(C3(O)c4ccccc4C(=O)N3Cc3ccccc3)ccc2[nH]1 (stereo not shown) [Entry 195, but-3-en-1-yl {5-[1-hydroxy-3-oxo-2-(phenylmethyl)-2,3-dihydro-1H-isoindol-1-yl]-1H-benzimidazol-2-yl}carbamate] | – | – | < 100 | < 100 |
| COC(=O)Nc1nc2cc(C3(O)c4ccccc4C(=O)N3c3cccc(N(C)C4CCCCC4)c3)ccc2[nH]1 (stereo not shown) [Entry 311, methyl [5-(2-{3-[cyclohexyl(methyl)amino]phenyl}-1-hydroxy-3-oxo-2,3-dihydro-1H-isoindol-1-yl)-1H-benzimidazol-2-yl]carbamate] | < 100 | < 100 | – | – |
| C#Cc1ccc(C)c(N2C(=O)c3ccccc3C2(O)c2ccc3[nH]c(NC(=O)OC)nc3c2)c1 (stereo not shown) [Entry 360, methyl {5-[2-(5-ethynyl-2-methylphenyl)-1-hydroxy-3-oxo-2,3-dihydro-1H-isoindol-1-yl]-1H-benzimidazol-2-yl}carbamate] | < 100 | < 100 | – | – |
| COC(=O)Nc1nc2cc(C3(O)c4ccccc4C(=O)N3c3cc(OC)ccc3C)ccc2[nH]1 (stereo not shown) [Entry 368, methyl (5-{1-hydroxy-2-[2-methyl-5-(methyloxy)phenyl]-3-oxo-2,3-dihydro-1H-isoindol-1-yl}-1H-benzimidazol-2-yl)carbamate] | < 100 | < 100 | – | – |
| O=C(Nc1nc2ccc(C3(O)c4ccccc4C(=O)N3c3cccc(Cl)c3F)cc2[nH]1)OCC1CC2CCC(C1)N2 (stereo not shown) [Entry 312, 8-azabicyclo[3.2.1]oct-3-ylmethyl {6-[2-(3-chloro-2-fluorophenyl)-1-hydroxy-3-oxo-2,3-dihydro-1H-isoindol-1-yl]-1H-benzimidazol-2-yl}carbamate] | < 100 | < 100 | – | – |
| O=C1c2ccccc2C(O)(c2ccc3[nH]c(Nc4ccccn4)nc3c2)N1c1cccc(Cl)c1F (stereo not shown) [Entry 332, 2-(3-chloro-2-fluorophenyl)-3-hydroxy-3-[2-(pyridin-2-ylamino)-1H-benzimidazol-5-yl]-2,3-dihydro-1H-isoindol-1-one] | < 100 | < 100 | – | – |
| COC(=O)Nc1nc2cc(C3(O)c4ccccc4C(=O)N3c3cccc(Nc4ccccc4)c3)ccc2[nH]1 (stereo not shown) [Entry 243, methyl (5-{1-hydroxy-3-oxo-2-[3-(phenylamino)phenyl]-2,3-dihydro-1H-isoindol-1-yl}-1H-benzimidazol-2-yl)carbamate] | – | – | 100 to 1000 | 100 to 1000 |
| CC(C)(CO)COC(=O)Nc1nc2cc(C3(O)c4ccccc4C(=O)N3Cc3ccccc3)ccc2[nH]1 (stereo not shown) [Entry 248, 3-hydroxy-2,2-dimethylpropyl {5-[1-hydroxy-3-oxo-2-(phenylmethyl)-2,3-dihydro-1H-isoindol-1-yl]-1H-benzimidazol-2-yl}carbamate] | – | – | 100 to 1000 | 100 to 1000 |
| COC(=O)Nc1nc2cc(C3(O)c4ccccc4C(=O)N3c3cccc(C(C)C)c3)ccc2[nH]1 (stereo not shown) [Entry 204, methyl (5-{1-hydroxy-2-[3-(1-methylethyl)phenyl]-3-oxo-2,3-dihydro-1H-isoindol-1-yl}-1H-benzimidazol-2-yl)carbamate] | – | – | < 100 | < 100 |
| COC(=O)Nc1nc2cc(C3(O)c4ccccc4C(=O)N3Cc3ccccn3)ccc2[nH]1 (stereo not shown) [Entry 124, methyl {5-[1-hydroxy-3-oxo-2-(pyridin-2-ylmethyl)-2,3-dihydro-1H-isoindol-1-yl]-1H-benzimidazol-2-yl}carbamate] | – | – | 100 to 1000 | 100 to 1000 |
| O=C(CCN1CCCCC1)Nc1nc2cc(C3(O)c4ccccc4C(=O)N3Cc3ccccc3)ccc2[nH]1 (stereo not shown) [Entry 274, N-{5-[1-hydroxy-3-oxo-2-(phenylmethyl)-2,3-dihydro-1H-isoindol-1-yl]-1H-benzimidazol-2-yl}-3-piperidin-1-ylpropanamide] | < 100 | < 100 | – | – |
| COC(=O)Nc1nc2cc(C3(O)c4ccccc4C(=O)N3c3cccc(Br)c3F)ccc2[nH]1 (stereo not shown) [Entry 251, methyl {5-[2-(3-bromo-2-fluorophenyl)-1-hydroxy-3-oxo-2,3-dihydro-1H-isoindol-1-yl]-1H-benzimidazol-2-yl}carbamate] | – | – | < 100 | < 100 |
| CCOC(=O)Nc1nc2cc(C3(O)c4ccccc4C(=O)N3c3cccc(Cl)c3F)ccc2o1 (stereo not shown) [Entry 357, ethyl {5-[2-(3-chloro-2-fluorophenyl)-1-hydroxy-3-oxo-2,3-dihydro-1H-isoindol-1-yl]-1,3-benzoxazol-2-yl}carbamate] | 100 to 1000 | < 100 | – | – |
| O=C1COc2ccc(C3(O)c4ccccc4C(=O)N3Cc3ccccc3Cl)cc2N1 (stereo not shown) [Entry 35, 6-{2-[(2-chlorophenyl)methyl]-1-hydroxy-3-oxo-2,3-dihydro-1H-isoindol-1-yl}-2H-1,4-benzoxazin-3(4H)-one] | – | – | 1000 to 10000 | ≥ 10000 |
| CC(C)C(=O)Nc1nc2ccc(C3(O)c4ccccc4C(=O)N3Cc3ccccc3)cc2[nH]1 (stereo not shown) [Entry 240, N-{6-[1-hydroxy-3-oxo-2-(phenylmethyl)-2,3-dihydro-1H-isoindol-1-yl]-1H-benzimidazol-2-yl}-2-methylpropanamide] | – | – | 100 to 1000 | 100 to 1000 |
| O=C1COc2ccc(C3(O)c4ccccc4C(=O)N3c3ccccc3F)cc2N1 (stereo not shown) [Entry 83, 6-[2-(2-fluorophenyl)-1-hydroxy-3-oxo-2,3-dihydro-1H-isoindol-1-yl]-2H-1,4-benzoxazin-3(4H)-one] | – | – | 1000 to 10000 | 100 to 1000 |
| CC[C@H](c1ccccc1)N1C(=O)c2ccccc2C1(O)c1ccc2[nH]c(NC(=O)OC)nc2c1 (stereo partly drawn) [Entry 182, methyl (5-{1-hydroxy-3-oxo-2-[(1R)-1-phenylpropyl]-2,3-dihydro-1H-isoindol-1-yl}-1H-benzimidazol-2-yl)carbamate] | – | – | 100 to 1000 | 100 to 1000 |
| COC(=O)Nc1nc2cc(C3(O)c4ccccc4C(=O)N3C(C)c3cccc(F)c3)ccc2[nH]1 (stereo not shown) [Entry 166, methyl (5-{2-[1-(3-fluorophenyl)ethyl]-1-hydroxy-3-oxo-2,3-dihydro-1H-isoindol-1-yl}-1H-benzimidazol-2-yl)carbamate] | – | – | 100 to 1000 | < 100 |
| COC(=O)Nc1nc2ccc(C3(O)c4c(F)ccc(F)c4C(=O)N3c3cccc(Cl)c3F)cc2[nH]1 (stereo not shown) [Entry 339, methyl {6-[2-(3-chloro-2-fluorophenyl)-4,7-difluoro-1-hydroxy-3-oxo-2,3-dihydro-1H-isoindol-1-yl]-1H-benzimidazol-2-yl}carbamate] | < 100 | < 100 | – | – |

The remaining lines, values ahead:

| IC50 (c-Raf; [1]) [nM] | IC50 (B-Raf; [2]) [nM] | IC50 (c-Raf; read-out: cRaf-1 IC50) [nM] | IC50 (B-Raf; read-out: bRaf IC50) [nM] | SMILES |
| --- | --- | --- | --- | --- |
| 1000 to 10000 | 1000 to 10000 | – | – | COC(=O)Nc1nc2cc(C3(O)c4ccccc4C(=O)N3CC3CCCN3)ccc2[nH]1 (stereo not shown) [Entry 300, methyl {5-[1-hydroxy-3-oxo-2-(pyrrolidin-2-ylmethyl)-2,3-dihydro-1H-isoindol-1-yl]-1H-benzimidazol-2-yl}carbamate] |
| – | – | 100 to 1000 | 100 to 1000 | COC(=O)Nc1nc2cc(C3(O)c4ccccc4C(=O)N3Cc3ccccc3Br)ccc2[nH]1 (stereo not shown) [Entry 130, methyl (5-{2-[(2-bromophenyl)methyl]-1-hydroxy-3-oxo-2,3-dihydro-1H-isoindol-1-yl}-1H-benzimidazol-2-yl)carbamate] |
| 1000 to 10000 | 1000 to 10000 | – | – | COC(=O)Nc1nc2cc(C3(O)c4ccccc4C(=O)N3S(=O)(=O)c3ccccc3)ccc2[nH]1 (stereo not shown) [Entry 268, methyl {5-[1-hydroxy-3-oxo-2-(phenylsulfonyl)-2,3-dihydro-1H-isoindol-1-yl]-1H-benzimidazol-2-yl}carbamate] |
| – | – | 100 to 1000 | 100 to 1000 | Cc1c(Cl)cccc1N1C(=O)c2ccccc2C1(O)c1ccc2c(c1)NC(=O)CO2 (stereo not shown) [Entry 75, 6-[2-(3-chloro-2-methylphenyl)-1-hydroxy-3-oxo-2,3-dihydro-1H-isoindol-1-yl]-2H-1,4-benzoxazin-3(4H)-one] |
| < 100 | < 100 | – | – | O=C(Cc1cccs1)Nc1nc2cc(C3(O)c4ccccc4C(=O)N3c3cccc(Cl)c3F)ccc2[nH]1 (stereo not shown) [Entry 338, N-{5-[2-(3-chloro-2-fluorophenyl)-1-hydroxy-3-oxo-2,3-dihydro-1H-isoindol-1-yl]-1H-benzimidazol-2-yl}-2-(2-thienyl)acetamide] |
| – | – | 100 to 1000 | 1000 to 10000 | COC(=O)Nc1nc2cc(C3(O)c4ccccc4C(=O)N3c3cccc(C(=O)c4ccccc4)c3)ccc2[nH]1 (stereo not shown) [Entry 234, methyl (5-{1-hydroxy-3-oxo-2-[3-(phenylcarbonyl)phenyl]-2,3-dihydro-1H-isoindol-1-yl}-1H-benzimidazol-2-yl)carbamate] |
| – | – | 100 to 1000 | 100 to 1000 | CC(C)c1cccc(N2C(=O)c3ccccc3C2(O)c2ccc3c(c2)NC(=O)CO3)c1 (stereo not shown) [Entry 59, 6-{1-hydroxy-2-[3-(1-methylethyl)phenyl]-3-oxo-2,3-dihydro-1H-isoindol-1-yl}-2H-1,4-benzoxazin-3(4H)-one] |
| < 100 | < 100 | – | – | COC(=O)Nc1nc2ccc(C3(O)c4c(F)cccc4C(=O)N3c3cccc(Cl)c3F)cc2[nH]1 (stereo not shown) [Entry 347, methyl {6-[2-(3-chloro-2-fluorophenyl)-7-fluoro-1-hydroxy-3-oxo-2,3-dihydro-1H-isoindol-1-yl]-1H-benzimidazol-2-yl}carbamate] |
| – | – | 1000 to 10000 | 1000 to 10000 | O=C1COc2ccc(C3(O)c4ccccc4C(=O)N3c3ccccc3Cl)cc2N1 (stereo not shown) [Entry 72, 6-[2-(2-chlorophenyl)-1-hydroxy-3-oxo-2,3-dihydro-1H-isoindol-1-yl]-2H-1,4-benzoxazin-3(4H)-one] |
